The values that follow come from a melting point compilation (Tetko et al.; mined from patent text by program, amines drawn as free bases though some values may be those of a salt).

Consider `Cc1c(CO)c(CO)c2n1Cc1ccccc1C2`, for which the melting point lay in the range of 99 to 101 °C. On to `COc1cc2c(cc1OC)CN(CCC1OCC(C)(C)c3cc(OC)c(OC)cc31)CC2` (stereo not given), for which the melting point was 100 to 105 °C. Compound `O=C1c2cccc(N(CCO)CCO)c2OC12CC2` came in with a melting point of 74 to 76 °C.

Consider `Cn1c2ccccc2c2c3c(ccc21)C(=O)OC3=O`, for which the melting point amounted to 153 °C. The compound `CCN(CC)C(=O)c1c(O)cc(C(F)(F)F)cc1-c1ccc(OC)c(OC)c1` registered a melting point of 161 °C.

As to `CNS(=O)(=O)c1ccc(-c2cc(N3CCOCC3)cc(Nc3ccc(OC(F)(F)F)cc3)n2)cc1`, the melting point is 234 to 236 °C.

As for `NC(=O)NC1CCCCC1`, the melting point was in the range of 175 to 176 °C. For the compound `N#Cc1cc([N+](=O)[O-])c(N)cc1F`, the melting point fell in the range of 197 to 199 °C. In the case of `COc1cc(O)c2c(=O)c(OC)c(-c3ccc(OCc4ccccc4)c(OC)c3)oc2c1` it was 156 to 157 °C. Take `CCCCCCCCCCCCCCOc1ccc(OCc2ccccc2)c(C(=O)O)c1`: the melting point lay within 73 to 74 °C.

Take `Oc1cccc(-c2n[nH]c3c2Cc2ccccc2-3)c1`: the melting point lay in the range of 302 to 304 °C. In the case of `C[C@]12CC(=C(F)F)[C@H]3[C@@H](CCC4=CC(=O)CC[C@@H]43)[C@@H]1CCC2=O` it was 158 to 164 °C; in that of `CC(C)(S)CNC(=O)CCC(=O)O`, 86 to 87 °C. The compound `N#Cc1c(Cc2ccccc2)nn(C2CCCC2)c1NC(=O)c1ccncc1` displayed a melting point of 189 to 191 °C. For the compound `CC(O)COc1cccc(N)c1C(N)=O` (stereo not given), the melting point lay within 115 to 118 °C. Turning to `CC1(C)SC2C(N3C(=O)C(C4=CCC=CC4)NC3(C)C)C(=O)N2C1C(=O)O` (stereo not given), the melting point is 186 °C. In the case of `COc1cc(-c2nc3ccc(OCCN(C)C)cc3n2Cc2ccccc2Br)cc(OC)c1OC` it was 152 °C.

On to `CCn1nnc2cc3c(N4CCN(C(=O)Nc5ccc(Oc6ccccc6)cc5)CC4)ncnc3cc21`, for which the melting point fell in the range of 167 to 168 °C. `CN1C(=O)C(c2ccc(Cl)cc2)SC1c1cccnc1` (stereo not given) gave a melting point of 77.5 to 79 °C.

`CC(=O)Nc1nc2c(Oc3cc(-c4ccc(C(F)(F)F)cc4NC(=O)C4CCCCN4CC(C)C)ncn3)cccc2s1` (stereo not given) displayed a melting point of 153 to 155 °C. Take `C=CCNC(=O)N1CC(Oc2ccc(C(F)(F)F)cc2)C1`: the melting point fell in the range of 91 to 92.5 °C.

`CNc1nc(Br)cc(S(=O)(=O)c2ccccc2)n1` had a melting point of 142 to 143 °C. `C=Cn1cc(C(=O)O)c(=O)c2cc(F)c(F)c(F)c21` returned a melting point of 186 to 187 °C. The result for `CC(C)(C)c1ccc(N2CC(COC(=O)c3ccccc3C(=O)O)CC2=O)cc1` (stereo not given) reads 155 to 157 °C; that for `Fc1cc(CC2(Cc3ccncc3)c3ccccc3-c3sccc32)ccn1` (stereo not given), 117 to 119 °C; that for `CCOC(=O)C1=C(C)N(C)C(C)=C(C(=O)OCC)C1c1ccc(OC(C)(C)C(=O)OCC)cc1`, 88 °C. The result for `Cc1ccc(CNc2ccc(Cl)cc2Cl)c(C)c1` reads 88 to 90 °C; that for `C#CC(CC(=O)OC)c1ccc(OC)c(OC2CCCC2)c1` (racemic), 41 to 42 °C. The result for `CCN(CC)C(=O)c1cc(-c2ccccc2)c2occc2c1` reads 56 °C; that for `C=CCCCCCCCCOc1ccc(O)cc1`, 54 to 55 °C; that for `CCOC(=O)C1=C(C)Nc2ccnn2C1c1ccccc1C(F)(F)F` (stereo not given), 182 to 183 °C.

Compound `CS(=O)(=O)N1CCn2c(nc3c(N)nc4cc(OCc5ccccc5)ccc4c32)C1` showed a melting point of 266 to 268 °C. The compound `NC(=O)N(O)CC=Cc1ccoc1` gave a melting point of 136 to 137 °C. `CC(C)(C)c1ccc(S(=O)(=O)NCCCCOc2ccc(-n3ccnc3)cc2)cc1` returned a melting point of 138 to 140 °C. For `O=C(c1ccncc1)N1CCN(Cc2ccc3c(c2)-c2[nH]nc(-c4ccsc4)c2C3)CC1`, the melting point lay in the range of 168 to 170 °C. In the case of `CN1C(=O)[C@H](NC(=O)/C=C/c2ccc(F)cc2F)N=C(c2ccccc2)c2ccccc21` it was 121 to 123 °C; in that of `N#CN1CCN(c2nn(S(=O)(=O)c3ccccc3)c3cc(F)ccc23)CC1`, 178 to 180 °C; in that of `CC1(O)NC(=O)OC12CCNCC2` (stereo not given), 192 to 194 °C. `S=C(Cc1ccncc1)N1CCOCC1` came in with a melting point of 162 to 163 °C. In turn, `CC(C)COC(=O)c1ccc2nc(N)n(S(=O)(=O)N(C)C)c2c1` registered a melting point of 197 to 198 °C.

In turn, `CCOc1cc(OCc2ccc(CN(C)C)o2)cc2c1C(=O)N(COC(=O)c1c(Cl)cccc1Cl)S2(=O)=O` came in with a melting point of 157 to 158 °C. Take `CC(=O)Cc1ccc(-c2noc3cc(Cl)ccc23)cc1`: the melting point was 109 to 110 °C.

`COC(=O)c1ccc(C2CCC(=O)CC2)cc1` gave a melting point of 91 to 92 °C.

The compound `CS(=O)(=O)c1ccc(CCl)cc1` returned a melting point of 102 °C. As to `CCOC(=O)c1ccc(-c2coc(-c3ccc(C(F)(F)F)cc3)n2)cc1`, the melting point was in the range of 168 to 170 °C. In the case of `S=C(Cc1ccc(Oc2ccc(I)cc2)cc1)N1CCOCC1` it was 123 to 127 °C; in that of `COC(=O)c1ccccc1NC(=S)c1ccc(OC)nc1`, 133 to 140 °C. `Cc1cccc(C)c1N1C(=O)c2ccc(C(=O)O)cc2C1=O` showed a melting point of 210 to 213 °C. As for `COc1c2c(c(OC)c(OC)c1OC)CC(CCCCCCCCOc1ccc(Cl)cc1)C2`, the melting point is 38 to 42 °C. Regarding `O=C(O)c1ccc(COCc2csc3nc(C(=O)NCc4cccc(F)c4)[nH]c(=O)c23)cc1`, the melting point lay in the range of 256 to 280 °C. Consider `CCOC(=O)c1c(O)c2cc(C)ccc2n(C)c1=O`, for which the melting point amounted to 132 °C. Compound `O=c1[nH]c(=O)c2nc3ccccc3nc2[nH]1` returned a melting point of 300 °C. The result for `CN(C)CCCCC(=O)c1ccc2c(c1)Cc1cc(C(=O)CCCCN(C)C)ccc1-2` reads 124 to 126 °C. `CC(SC(=O)c1ccccc1)C(=O)NCCC(=O)O` (stereo not given): the melting point lay in the range of 94 to 97 °C.

In turn, `CCCCCCC1CC(Cn2cncn2)(c2ccccc2)N(C)O1` (stereo not given) showed a melting point of 93 to 99 °C. With `Cc1c(NC(=O)CC(C)(C)C)c(C)c2c(c1-c1ccc(F)nc1)OCC2c1ccc(C(C)C)cc1` (stereo not given), the melting point was 135 to 137 °C. Take `COc1cc2c(cc1OC)N(C(C)=O)CC(N(C)C)C2` (stereo not given): the melting point lay in the range of 145 to 147 °C.

For `Fc1ccc(COc2ccc(CS)cc2)cc1`, the melting point fell in the range of 77 to 80 °C. `CCOC(=O)/C(=C\Nc1ccc(OC)cc1)c1ccc(OC)cc1` yielded a melting point of 90 to 91 °C.

Take `CC12CCC3c4cc(C=O)c(OCc5ccccc5)cc4CCC3C1CCC2OCc1ccccc1` (stereo not given): the melting point fell in the range of 145 to 147 °C. In turn, `CC(=NO)C1=CCC2C3CCC4CC=CCC4(C)C3C(=O)CC12C` (stereo not given) displayed a melting point of 168 to 182 °C.

Regarding `CCCN1CCC(C(=O)Nc2ccc(CN(C)C3CCOCC3)cc2)=Cc2cc(-c3ccc(N4CCOCC4)cc3)ccc21`, the melting point is 114 to 118 °C.

Consider `O=[N+]([O-])c1cccc2ccc3c(c12)C(CCl)CN3` (stereo not given), for which the melting point amounted to 100 °C.

`NS(=O)(=O)c1ccccc1CCC(F)(F)F`: the melting point was 148 to 149 °C. `O=S1CCON=C1c1nc2ccccc2s1` (stereo not given) yielded a melting point of 192 to 195 °C.

Turning to `Nc1ccc2c(c1)S(=O)(=O)N(CCCCN1CCN(c3ncccn3)CC1)C2=O`, the melting point lay in the range of 150 to 151 °C. Consider `C[C@@H](O)c1nccc(N2CCc3ccc(S(=O)(=O)N(C)C)cc3C2)n1`, for which the melting point is 120 to 122 °C. In turn, `CC(C)n1nc(-c2c(-c3ccccc3)nn3ccc(OCC(=O)N4CCN(C(=O)N(C)C)CC4)cc23)ccc1=O` returned a melting point of 151 to 152 °C. As for `COc1ccccc1OCC1SCCN1C(=O)CBr` (stereo not given), the melting point fell in the range of 82 to 84 °C.

Take `Cc1cc(N)ccc1-c1ccc(-c2ccc(N)cc2C)s1`: the melting point lay in the range of 86 to 88 °C. The compound `O=C(O)c1cncc(O)c1C(=O)c1cc(Cl)ccc1F` registered a melting point of 262 to 264 °C.

Compound `O=C(O)Cc1ccc(C(=O)c2ccc(Cl)cc2)n1Cc1ccccc1` returned a melting point of 162 to 163 °C.

Take `CS(=O)(=O)Oc1ccc(C=O)cc1`: the melting point lay within 61 to 63 °C.

`Oc1ccc(C2CCC(NCC(O)Cc3ccccc3)CC2)cc1` (racemic) gave a melting point of 52 to 57 °C.

In turn, `CCOC(=O)C=Cc1cc(C(C)=O)ccc1OC` had a melting point of 90 °C. For `CC(=O)N1C=CC(C(C)=O)(c2ccccc2)C=C1`, the melting point fell in the range of 93 to 95 °C.

`CC(=O)NC[C@H]1CN(c2cc(F)c(N3CCC(n4nnc(N5CCN(C(C)=O)CC5)n4)CC3)c(F)c2)C(=O)O1` returned a melting point of 200 to 205 °C. In the case of `CCCCc1c(Cl)nc(N=CN(C)C)nc1Cl` it was 66 to 68 °C; in that of `Cc1cccc2c(=O)[nH]c(C3CCN(CCCO)CC3)cc12`, 197 to 199 °C; in that of `CN1C(=O)C2(CCN(CCCC(=O)c3ccc(F)cc3)CC2)c2ccccc21`, 95 to 96.5 °C. For the compound `COC(=O)C1CCNC(=O)C1=O` (stereo not given), the melting point lay in the range of 151 to 153 °C. The compound `COC(=O)C1=C(COCCn2c(C)nc(C)c2C)NC(C)=C(C(=O)Nc2ccccc2)C1c1ccccc1Cl` (stereo not given) returned a melting point of 135 to 140 °C. Turning to `COC(=O)CCC/C(C)=C/c1cccc2c1NCCNC2=O`, the melting point is 175 to 176 °C. For the compound `COC(=O)[C@H](C)N(C(=O)[C@H](CC(C)C)NC(=O)OC(C)(C)C)c1ccc(Cl)c(Cl)c1`, the melting point is 117 to 119 °C.

`N#CC1(N)CCc2ccc3ccccc3c2C1` (stereo not given) had a melting point of 75 to 78 °C.

In turn, `COc1ccccc1N1CCN(CC(O)COc2ccc3cc(C(C)=O)oc3c2)CC1` (stereo not given) had a melting point of 122 to 125 °C. Take `CN(C)S(=O)(=O)Oc1c(I)cc(C(C)(C)C)cc1CN`: the melting point is 94 to 95 °C. On to `COc1cccc(CNc2ncnc3c2sc2nc(N4CCOCC4)c4c(c23)CC(C)(C)CC4)c1OC`, for which the melting point fell in the range of 219 to 220 °C.

With `Nc1ccc2c(c1Br)C(=O)C1(CC1)O2`, the melting point is 167 to 170 °C. With `CN1CCN(c2ccc(Nc3ncc4c(n3)S/C(=C/c3ccc([N+](=O)[O-])cc3)C(=O)N4)cc2)CC1`, the melting point was 276 to 279 °C.

What is called melting point is the temperature, or range, at which the solid turns liquid.
